Results on 9 compounds are retold here after patent US9527885B2, “Hepatitis C virus inhibitors” (BRISTOL-MYERS SQUIBB COMPANY, priority 2011, dated 2016).

Assay [1] concerns HCV genotype 1a (H77 strain) replicon in HUH-7 cells. The assay can be described thus: HCV replicon luciferase reporter assay, genotype 1a. The assay is classed as cell-based. As to conditions: Hepatitis C virus, Huh-7, 72 h, 3 days incubation, read-out: LE_1a (EC50, range). Summed up: (§1)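 Twenty-point, threefold compound titrations (0.5% DMSO) were incubated 3 days at 37 °C with 3.0×10^3 HUH-7 cells/well in 4% FCS. The cells stably carried luciferase replicons: genotype 1b Con1 (S1179I) or 1a H77 (NS3 P1496L, NS5A S2204I). Renilla signal was read after 2 h with 7.5 μM EnduRen, and EC50 was taken from a four-parameter logistic fit. Cytotoxicity (CC50) was measured by Cell Titer-Blue, 8 h.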

In assay [2] the test system is HCV genotype 1b (Con1) replicon in HUH-7 cells. Put plainly: HCV replicon luciferase reporter assay, genotype 1b. The assay is classed as cell-based. The note with it: Hepatitis C virus, 72 h, 3 days incubation, read-out: LE_1b (EC50, range). The method, boiled down:
as §1

The mark [3] stands for this setting: HCV genotype 1a replicon luciferase, class symbols.
Where [4] appears, read: HCV genotype 1b replicon luciferase, class symbols.
The mark [5] stands for this setting: HCV genotype 1a replicon luciferase, range class.
[6] abbreviates: HCV genotype 1b replicon luciferase, range class.

Read-outs that look alike come from different tables or passages of the source. Some results are limits rather than exact numbers.

As to `CC[C@@H]1C[C@H](C)CC/C=C\[C@@H]2C[C@@]2(C(=O)NS(=O)(=O)C2CC2)NC(=O)[C@@H]2C[C@@H](Oc3ncc(OC)c4ccc(F)cc34)CN2C(=O)[C@H]1NC(=O)OC(C)(C)C` [Compound 4001, tert-butyl tert-butyl (2R,6S,7R,9R,13aS,14aR,16aS,Z)-14a-(cyclopropylsulfonylcarbamoyl)-7-ethyl-2-(7-fluoro-4-methoxyisoquinolin-1-yloxy)-9-methyl-5,16-dioxo-1,2,3,5,6,7,8,9,10,11,13a,14,14a,15,16,16a-hexadecahydrocyclopropa[e]pyrrolo[1,2-a][1,4]diazacyclopentadecin-6-ylcarbamate], the EC50 in assay [1] (setting [3]) and in assay [2] (setting [4]) was below 5.46 nM each time.

As for `[2H]C([2H])([2H])Oc1cnc(O[C@@H]2C[C@H]3C(=O)N[C@]4(C(=O)NS(=O)(=O)C5(C)CC5)C[C@H]4CCCC[C@H](C)C[C@@H](C)[C@H](NC(=O)OC(C)(C)C(F)(F)F)C(=O)N3C2)c2ccccc12` [Compound 5110, 1,1,1-trifluoro-2-methylpropan-2-yl ((2R,6S,7R,9S,13aR,14aR,16aS)-7,9-dimethyl-14a-(((1-methylcyclopropyl)sulfonyl)carbamoyl)-5,16-dioxo-2-((4-(trideuteromethoxy)isoquinolin-1-yl)oxy)octadecahydrocyclopropa[e]pyrrolo[1,2-a][1,4]diazacyclopentadecin-6-yl)carbamate], the 50% effective concentration (EC50) in assay [1] (setting [3]) was 4.82 to 103 nM; in assay [2] (setting [4]), below 5.46 nM.

As for `C[C@@H]1CC/C=C\[C@@H]2C[C@@]2(C(=O)NS(=O)(=O)C2CC2)NC(=O)[C@@H]2C[C@@H](Oc3nccc4c5c(ccc34)OC(F)(F)O5)CN2C(=O)[C@@H](NC(=O)O[C@@H]2C[C@@H]3C[C@@H]3C2)[C@H](C)C1` [Compound 5274, (1R,3r,5S)-bicyclo[3.1.0]hexan-3-yl ((2R,6S,7R,9R,13aS,14aR,16aS,Z)-14a-((cyclopropylsulfonyl)carbamoyl)-2-((2,2-difluoro-[1,3]dioxolo[4,5-f]isoquinolin-6-yl)oxy)-7,9-dimethyl-5,16-dioxo-1,2,3,5,6,7,8,9,10,11,13a,14,14a,15,16,16a-hexadecahydrocyclopropa[e]pyrrolo[1,2-a][1,4]diazacyclopentadecin-6-yl)carbamate], the concentration giving a half-maximal response (EC50) in assay [1] (setting [5]) and in assay [2] (setting [6]) was below 5.46 nM in each case.

For the compound `COc1ccc(-c2nc(O[C@@H]3C[C@H]4C(=O)N[C@]5(C(=O)NS(=O)(=O)C6CC6)C[C@@H]5/C=C\CC[C@@H](C)C[C@@H](C)[C@H](NC(=O)OC(C)(C)C)C(=O)N4C3)c3ccc(OC)cc3n2)cc1` [Compound 5002, tert-butyl ((2R,6S,7R,9R,13aR,14aR,16aS,Z)-14a-((cyclopropylsulfonyl)carbamoyl)-2-((7-methoxy-2-(4-methoxyphenyl)quinazolin-4-yl)oxy)-7,9-dimethyl-5,16-dioxo-1,2,3,5,6,7,8,9,10,11,13a,14,14a,15,16,16a-hexadecahydrocyclopropa[e]pyrrolo[1,2-a][1,4]diazacyclopentadecin-6-yl)carbamate], the EC50 in assay [1] (setting [3]) and in assay [2] (setting [4]) was below 5.46 nM each time.

Consider `C[C@H]1CC/C=C\[C@@H]2C[C@@]2(C(=O)NS(=O)(=O)C2CC2)NC(=O)[C@@H]2C[C@@H](Oc3nccc4c5c(ccc34)OC(F)(F)O5)CN2C(=O)[C@@H](NC(=O)O[C@@H]2C[C@@H]3C[C@@H]3C2)[C@H](C)C1` [Compound 5273, (1R,3r,5S)-bicyclo[3.1.0]hexan-3-yl ((2R,6S,7R,9S,13aS,14aR,16aS,Z)-14a-((cyclopropylsulfonyl)carbamoyl)-2-((2,2-difluoro-[1,3]dioxolo[4,5-f]isoquinolin-6-yl)oxy)-7,9-dimethyl-5,16-dioxo-1,2,3,5,6,7,8,9,10,11,13a,14,14a,15,16,16a-hexadecahydrocyclopropa[e]pyrrolo[1,2-a][1,4]diazacyclopentadecin-6-yl)carbamate], for which the EC50 in assay [1] (setting [5]) and in assay [2] (setting [6]) was 4.82 to 103 nM each time.

In the case of `CCOc1ccc2c(O[C@@H]3C[C@H]4C(=O)N[C@]5(C(=O)NS(=O)(=O)C6(C)CC6)C[C@H]5/C=C\CC[C@@H](C)C[C@@H](C)[C@H](NC(=O)O[C@@H]5C[C@@H]6C[C@@H]6C5)C(=O)N4C3)nccc2c1` [Compound 5138, (1R,3r,5S)-bicyclo[3.1.0]hexan-3-yl ((2R,6S,7R,9R,13 aS,14aR,16aS,Z)-2-((6-ethoxyisoquinolin-1-yl)oxy)-7,9-dimethyl-14a-(((1-methylcyclopropyl)sulfonyl)carbamoyl)-5,16-dioxo-1,2,3,5,6,7,8,9,10,11,13a,14,14a,15,16,16a-hexadecahydrocyclopropa[e]pyrrolo[1,2-a][1,4]diazacyclopentadecin-6-yl)carbamate], the EC50 in assay [1] (setting [3]) and in assay [2] (setting [4]) was below 5.46 nM throughout.

With `COc1ccc2c(O[C@@H]3C[C@H]4C(=O)N[C@]5(C(=O)NS(=O)(=O)C6(CF)CC6)C[C@H]5/C=C\CC[C@@H](C)C[C@@H](C)[C@H](NC(=O)OC(C)(C)C(F)(F)F)C(=O)N4C3)cc(Cl)nc2c1` [Compound 4199, 1,1,1-trifluoro-2-methylpropan-2-yl (2R,6S,7R,9R,13aS,14aR,16aS,Z)-2-(2-chloro-7-methoxyquinolin-4-yloxy)-14a-(1-(fluoromethyl)cyclopropylsulfonylcarbamoyl)-7,9-dimethyl-5,16-dioxo-1,2,3,5,6,7,8,9,10,11,13a,14,14a,15,16,16a-hexadecahydrocyclopropa[e]pyrrolo[1,2-a][1,4]diazacyclopentadecin-6-ylcarbamate], the concentration giving a half-maximal response (EC50) in assay [1] (setting [3]) and in assay [2] (setting [4]) was below 5.46 nM throughout.

For the compound `C[C@@H]1CC/C=C\[C@@H]2C[C@@]2(C(=O)NS(=O)(=O)C2CC2)NC(=O)[C@@H]2C[C@@H](Oc3nc4ccccc4c4ccccc34)CN2C(=O)[C@@H](NC(=O)OC(C)(C)C(F)(F)F)[C@H](C)C1` [Compound 5185, 1,1,1-trifluoro-2-methylpropan-2-yl ((2R,6S,7R,9R,13aS,14aR,16aS,Z)-14a-((cyclopropylsulfonyl)carbamoyl)-7,9-dimethyl-5,16-dioxo-2-(phenanthridin-6-yloxy)-1,2,3,5,6,7,8,9,10,11,13a,14,14a,15,16,16a-hexadecahydrocyclopropa[e]pyrrolo[1,2-a][1,4]diazacyclopentadecin-6-yl)carbamate], the concentration giving a half-maximal response (EC50) in assay [1] (setting [5]) and in assay [2] (setting [6]) was below 5.46 nM throughout.

For `COc1ccc2c(O[C@@H]3C[C@H]4C(=O)N[C@]5(C(=O)NS(=O)(=O)C6(CF)CC6)C[C@H]5/C=C\CC[C@@H](C)C[C@@H](C)[C@H](NC(=O)OC(C)(C)C(C)(F)F)C(=O)N4C3)nc(N(C)C)cc2c1` [Compound 3125, 3,3-difluoro-2-methylbutan-2-yl ((2R,6S,7R,9R,13aS,14aR,16aS,Z)-2-((3-(dimethylamino)-6-methoxyisoquinolin-1-yl)oxy)-14a-(((1-(fluoromethyl)cyclopropyl)sulfonyl)carbamoyl)-7,9-dimethyl-5,16-dioxo-1,2,3,5,6,7,8,9,10,11,13a,14,14a,15,16,16a-hexadecahydrocyclopropa[e]pyrrolo[1,2-a][1,4]diazacyclopentadecin-6-yl)carbamate], the half-maximal effective concentration (EC50) was 4.82 to 103 nM in assay [1] (HCV genotype 1a replicon luciferase reporter, range class) and below 5.46 nM in assay [2] (HCV genotype 1b replicon luciferase reporter, range class).
